Measurements: patent US9289443B2, “Pharmaceutical composition and method for preventing or treating hepatitis C” (INDUSTRIAL TECHNOLOGY RESEARCH INSTITUTE, priority 2010, dated 2016)
Like-named read-outs stand apart in the source and are kept apart here.

How the values were obtained:
[1] = Cell cytotoxic test (MTT) on Huh-luc/neo-ET cells; type: cell-based; details: human, concentration for 50% cell kill, two-day culture
Method: (§1) Cell Cytotoxic Test on Huh-luc/noe-ET Cells
(§2) Huh-luc/neo-ET cells with a concentration of 2.5×10^4 cells/100 μl/well were seeded into a 96 well culture plate (Corning Incorporation COSTAR, 3599) and placed into a cell incubator for culturing.
(§3) The next day, the oleanolic acid derivatives as listed in the following Tables 1 and 2 were diluted with a DMEM culture medium to the concentrations of 28.73 μg/ml, 9.57 μg/ml, 3.19 μg/ml, 1.06 μg/ml, 0.35 μg/ml, 0.11 μg/ml, 0.039 μg/ml and 0.013 μg/ml, respectively, or diluted to the concentrations of 114.92 μg/ml, 38.33 μg/ml, 12.77 μg/ml, 4.25 μg/ml, 1.42 μg/ml, 0.46 μg/ml, 0.16 μg/ml and 0.057 μg/ml, respectively. The initial medium in the 96 well culture plate was sucked out by a vacuum pump (DOAT-704AA) without removing the cells. Then, the culture medium containing the oleanolic acid derivatives were added into the 96 well culture plate containing 100 μl/well of the cells as the experiment groups, while the untreated culture mediums were added to the cells as a control.
(§4) After a two-day culture, the medium was removed and each well containing cells was washed by 100 μl of 1×PBS (1 mM KH2PO4, 10 mM Na2HPO4, 137 mM NaCl, 2.7 mM KCl) twice. Precipitates were recorded and PBS was removed. 50 μl of the medium containing 0.5 mg/ml of MTT (Sigma, M2128) was added into each well of the 96 well culture plate. The 96 well culture plate was placed in a CO2 culture incubator for 1 hour. Subsequently, 150 μl of DMSO (Riedel-de Haül, 60153) was added to each well of the 96 well culture plate and vortexed (KS shaker Type 670) to thoroughly mix the resulting purple precipitates. The 96 well culture plate was then placed in a continuous wave length microwell plate analysis system (Molecular Devices, SPECTRAMAX 190) to measure the absorbance of cells at a wavelength of 560 nm.
(§5) The average absorbance of the control was set as 100% of the cell survival rates (%) to calculate the cell survival rates (%) of the experiment groups with different concentrations of the oleanolic acid derivatives.
(§6) The cell survival rate was calculated by the following formula: Absorbance of the experiment group/Absorbance of the control×100%
(§7) The data of the cell survival rates for all experiment groups were plotted on an x-y graph to see the distribution. A trend line was obtained. […]

[2] = test system: Huh-luc/neo-ET cells; assay: Cell cytotoxic test (MTT) on Huh-luc/neo-ET cells; type: cell-based; details: two-day culture; for CC15: concentration for 15% cell kill; for CC50: concentration for 50% cell kill
Method: as §1, §2, §3, §4, §5, §6, §7

[3] = test system: HCV replicon system (Huh-luc/neo-ET cell carrying I389luc-ubi-NS3-3'/ET); assay: Inhibition of the HCV replication by determining the firefly luciferase activity (HCV replicon system); type: cell-based, Hepatitis C virus; details: for inhibition at 10 µM / Inhibition rate (%): compound concentration 10 μM; for EW (CC50/IC50): ratio of CC50/IC50
Text: HCV replicon system was used to test the effects of compounds on the treatment and prevention of hepatitis C. The HCV replicon system has been acknowledged as a screening tool for new drugs (Lohmann, V. et al., 1999, Replication of subgenomic hepatitis C virus RNAs in hepatoma cell line, Science. Vol. 285, 110-113; Bartenschlager, R. 2002, Hepatitis C virus replicons: potential role for drug development, Nature Reviews/Drug Discovery. Vol. 1, 911-916; Vorlijk, J. M. et al., 2003, A replicon-based bioassay for the measurement of interferons in patients with chronic hepatitis C, Journal of Virological Methods. 110:201-209). The HCV replicon system includes a Huh-luc/neo-ET cell carrying I389luc-ubi-NS3-3′/ET gene construct which monitors the replicative capability of the HCV. In the HCV replicon system, a firefly luciferase-ubiquitin-neomycin fusion protein is expressed by the translation of the internal ribosomal entry site (IRES) of the HCV, and the hepatitis C viral nonstructural proteins (NS3-5B), which includes protease, helicase and polymerase, are expressed by the translation of the IRES of the encephalomyocarditis virus (EMCV).
The IRES of the hepatitis C virus or the hepatitis C viral nonstructural proteins consist of a replication complex. When the replication complex is affected by the candidate compound, the activity of the HCV replicon system is inhibited and the activity of the luciferase is reduced. Accordingly, the inhibition of the HCV can be estimated by determining the activity of the intensity of the luciferase expressed by the Huh-luc/noe-ET cell.
Inhibition of the HCV Replication by Determining the Firefly Luciferase Activity
as §2
The oleanolic acid derivatives as listed in Table 2 were co-cultured with Huh-luc/neo-ET cells for 2 days. The mediums were washed twice by 100 μl of 1×PBS (1 mM KH2PO4, 10 mM Na2HPO4, 137 mM NaCl, 2.7 mM KCl) and PBS was removed. 35 μl of 1× passive lysis buffer (Promega, E1941) was added to the cells and vortexed for 10 minutes to thoroughly lysis the cells.
30 μl/well of the cell suspension was then added to a 96 well white plate (NUNC, 236108) for the measurement of the luciferase activity. Subsequently, 40 μl/well of luminescence analysis buffer and 20 μl/well of luminescence substrate (1 mM D-Luciferin) were added into the 96 well white plates. The luciferase activity (Rlu/s) was measured by a microplate luminescence meter (Berthold, MPL4) immediately.
The luciferase activity of the control was set as a standard to calculate the inhibition rates (%) of HCV of the experiment groups. The inhibition rates was calculated by the following formula: […]
After the test compounds were serial diluted and the inhibition rates of the HCV replication were determined at different concentrations, the concentration at 50% inhibition of the HCV replication (IC50) was calculated by grafit5 software (Erithacus Software).
For each experiment, 0.5 ng/ml and 0.1 ng/ml of the PEG IFN alpha-2a were used as positive controls for the IC50 test. Meanwhile, 1 μg/ml of cyclosporine A (CsA) was also used as a positive control for the IC50 test.

[4] = Hepatitis C virus, Huh-luc/neo-ET, 48 h, 2 days co-culture, luciferase activity, read-out: Inhibition rate (%)
[5] = Hepatitis C virus, concentration for 50% inhibition of the HCV replication, Huh-luc/neo-ET replicon cells, read-out: IC50
[6] = 2 days co-culture, luciferase activity

## CC(=O)OC1C(OC(C)=O)[C@]2(CO)C(OC(C)=O)C[C@]3(C)C(=CCC4[C@@]5(C)CC[C@H](OC6OC(C(C)=O)C(O)C(OC7OC(CO)C(O)C(O)C7O)C6O)C(C)(C)C5CC[C@]43C)C2CC1(C)C (stereo partly shown) [A07]
[1]
  CC50 at 2 days: > 100 µM
[2]
  CC15: >100 µM
[3]; [4]
  inhibition at 10 µM: 10.3 ± 11.7%

## CC1(C)CC[C@]2(C(=O)O)CC[C@]3(C)C(=CCC4[C@@]5(C)C[C@@H](O)[C@H](O)[C@@](C)(COC(=O)/C=C/c6ccc(O)cc6)C5CC[C@]43C)C2C1 (stereo partly shown) [A08]
[1]
  CC50 at 2 days: 72 µM
[2]
  CC15: 9.6 µM
[3]; [4]
  inhibition at 10 µM: 0.4 ± 22%

## C=CC(C)(O)CC/C=C(\C)C(=O)OC1C(O)C(CO)OC(OC(=O)C23CCC(C)(C)CC2C2=CCC4C5(C)CCC(OC6OC(COC7OCC(OC(C)=O)C(O)C7OC7OC(COC(C)=O)C(O)C(O)C7OC(C)=O)C(O)C(O)C6OC6OCC(O)C(O)C6O)C(C)(C)C5CCC4(C)C2(C)C(O)C3O)C1OC1OCC(OC2OCC(O)C(OC3OCC(O)C(O)C3O)C2O)C(O)C1O (stereo not shown) [A19]
[1]
  CC50 at 2 days: 17.9 µM
[2]
  CC15: 1.17 µM
[3]; Hepatitis C virus, Huh-luc/neo-ET, 48 h, compound concentration 1 μM, 2 days co-culture, luciferase activity, read-out: Inhibition rate (%)
  inhibition at 1 µM: 94.8 ± 1.6%
[3]; [5]
  IC50: 0.041 ± 0.005 µM
[3]
  EW (CC50/IC50): 435.61

## C=CC(C)(O)CC/C=C(\C)C(=O)OC1C(O)C(CO)OC(OC(=O)C23CCC(C)(C)CC2C2=CCC4C5(C)CCC(OC6OC(COC7OCC(O)C(O)C7OC7OCC(O)C(O)C7O)C(O)C(O)C6O)C(C)(C)C5CCC4(C)C2(C)CC3O)C1OC1OC(CO)C(OC2OCC(O)C(OC3OCC(O)C(O)C3O)C2O)C(O)C1O (stereo not shown) [A26]
[1]
  CC50 at 2 days: 38.4 µM
[2]
  CC15: 7.94 µM
[3]; [4]
  inhibition at 10 µM: 95.6 ± 1.2%
[3]; [5]
  IC50: 0.45 ± 0.04 µM
[3]
  EW (CC50/IC50): 85.24

## C[C@H]1O[C@@H](O[C@H]2CC[C@@]3(C)[C@@H](CC[C@]4(C)[C@@H]3C=C[C@]35OC[C@@]6(CCC(C)(C)C[C@H]63)[C@H](O)C[C@]54C)[C@]2(C)CO)[C@H](O)[C@@H](O[C@@H]2O[C@H](CO)[C@@H](O)[C@H](O)[C@H]2O)[C@H]1O [A05, Saikosaponin D]
[2]
  CC15: 16.1 µM
  CC50: 23.2 µM
[3]; [6]
  Inhibition rate (%): 50 ± 11.6%

## C[C@H]1O[C@@H](O[C@H]2CC[C@@]3(C)[C@@H](CC[C@]4(C)[C@@H]3C=C[C@]35OC[C@@]6(CCC(C)(C)C[C@H]63)[C@@H](O)C[C@]54C)[C@]2(C)CO)[C@H](O)[C@@H](O[C@@H]2O[C@H](CO)[C@@H](O)[C@H](O)[C@H]2O)[C@H]1O [A03, Saikosaponin A]
[2]
  CC15: 12.7 µM
  CC50: 23.1 µM
[3]; [6]
  Inhibition rate (%): 13.3 ± 8%

## C=CC(C)(O)CCCC(C)C(=O)OC1C(C)OC(OC(C)(C=C)CC/C=C(\CO)C(=O)OC2CC3(C(=O)OC4OCC(OC5OC(CO)C(O)C(OC6OC(CO)C(OC7OC(C)C(O)C(O)C7O)C(O)C6O)C5O)C(O)C4O)CCC4(C)C(=CCC5C6(C)CCC(OC7OC(CO)C(OC8OC(CO)C(O)C(OC9OCC(O)C(O)C9O)C8O)C(O)C7O)C(C)(C)C6CCC54C)C3CC2(C)C)C(O)C1O (stereo not shown) [A23]
[1]
  CC50 at 2 days: 38.1 µM
[2]
  CC15: 7.96 µM
[3]; Hepatitis C virus, Huh-luc/neo-ET
  IC50: 0.23 ± 0.02 µM
[3]; Hepatitis C virus, Huh-luc/neo-ET, 48 h, read-out: Inhibition rate (%)
  inhibition at 5 µM: 93.5 ± 0.4%
[3]
  EW (CC50/IC50): 156.73

## C=CC(C)(O)CC/C=C(\C)C(=O)O[C@H]1[C@H](O)[C@@H](CO)OC(OC(=O)[C@]23CCC(C)(C)CC2C2=CCC4[C@@]5(C)CC[C@H](OC6O[C@H](COC7OC[C@H](O)[C@H](O)[C@H]7OC7OC[C@@H](O)[C@H](O)[C@H]7O)[C@@H](O)[C@H](O)[C@H]6O)C(C)(C)C5CC[C@@]4(C)[C@]2(C)CC3)[C@@H]1OC1OC(C)C(OC2OC[C@@H](O)[C@H](OC3OC[C@@H](O)[C@H](O)[C@H]3O)[C@H]2O)C(O)C1O (stereo partly shown) [A25]
[1]
  CC50 at 2 days: 64.1 µM
[2]
  CC15: 10.29 µM
[3]; [4]
  inhibition at 10 µM: 96.5 ± 0.8%
[3]; [5]
  IC50: 0.36 ± 0.016 µM
[3]
  EW (CC50/IC50): 178.08

## C/C=C(\C)C(=O)OC1C(OC(C)=O)C2(C(=O)O)C(CC1(C)C)C1=CCC3C4(C)CCC(OC5OC(CO)C(O)C(OC6OC(CO)C(O)C(OC7OC(C)C(O)C(O)C7O)C6O)C5O)C(C)(C)C4CCC3(C)C1(C)C(OC(C)=O)C2OC(C)=O (stereo not shown) [A18]
[1]
  CC50 at 2 days: 94.8 µM
[2]
  CC15: 7.18 µM
[3]; [4]
  inhibition at 10 µM: 45 ± 2.9%

## C[C@@H]1OC(O[C@H]2C(OC(=O)[C@]34CCC(C)(C)C[C@H]3C3=CC[C@@H]5[C@@]6(C)C[C@H](O)[C@@H]7OC8O[C@H](CO)[C@@H](O)[C@H](O)[C@H]8OC8OC[C@H](O)[C@H](O)[C@H]8OC(=O)CC(C)(O)CC(=O)OC[C@H]7[C@@H]6CC[C@@]5(C)[C@]3(C)CC4)OC[C@H](O)[C@@H]2O)[C@H](O)[C@H](OC2OC[C@@H](O)[C@H](O)[C@H]2O)[C@H]1O (stereo partly shown) [A02]
[1]
  CC50 at 2 days: 15.2 µM
[2]
  CC15: 2.9 µM
[3]; [4]
  inhibition at 10 µM: 96.7 ± 0.6%
[3]; [5]
  IC50: 0.34 ± 0.06 µM
[3]
  EW (CC50/IC50): 44.71

## C[C@@H]1O[C@@H](O[C@@H]2[C@H](O)[C@@H](O)[C@H](O[C@H]3CC[C@@]4(C)C(CC[C@]5(C)C4C=C[C@]46OC[C@@]7(CCC(C)(C)CC74)[C@@H](O)C[C@]65C)C3(C)C)O[C@@H]2CO[C@@H]2O[C@H](CO)[C@@H](O)[C@H](O)[C@H]2O)[C@H](O)[C@H](O)[C@H]1O (stereo partly shown) [A04, Saikosaponin C]
[2]
  CC15: >100 µM
  CC50: > 100 µM
[3]; [6]
  Inhibition rate (%): 3.1 ± 12.9%
